Test: Organoleptic properties (taste profile) of the amides
Excerpt: More specifically, examples of the organoleptic properties for the dienalkylamides of our invention are as follows: […]

[1] = Formula II compounds, at 10 ppm

For `CC/C=C\CC/C=C/CNC(=O)C1CC1`, the Taste profile (Formula I compounds) was “Moderate Umami, off fish oily character”.
In the case of `CC(C)=CCC/C(C)=C\CNC(=O)C1CC1`, the Taste profile (Formula II compounds) is reported as “Salty, MSG, Umami, brothy, mouthfeel, sweetness”.
In the case of `CC(C)=CCC/C(C)=C/CNC(=O)C(C)C`, the Taste profile (Formula II compounds) is reported as “Some salt enhancement, umami and strong MSG effect, sweet end profile”.
With `CC(C)=CCC/C(C)=C/CNC(=O)C1CC1` the Taste profile (Formula II compounds) was “Salt, MSG, Umami, mouthfeel, lasting sweetness”.
In the case of `CC(C)=CCC/C(C)=C/CNC(=O)C=C(C)C`, the Taste profile [1] is reported as “Clean, weak umami effect at 10 ppm”.
In the case of `CC(C)=CCC/C(C)=C\CNC(=O)C(C)C`, the Taste profile (Formula II compounds) is reported as “Salt enhancement, MSG enhancement, Umami, brothy, sweet end profile”.
For `CCCCC/C=C\CC/C=C/CNC(=O)C1CC1`, the Taste profile (Formula I compounds) was “Oily, moderate umami”.
For `CC(C)=CCC/C(C)=C\CNC(=O)C=C(C)C`, the Taste profile [1] was “Clean, weak umami effect at 10 ppm”.
In the case of `C/C=C/C(=O)NC/C=C(/C)CCC=C(C)C`, the Taste profile (Formula II compounds) is reported as “Moderate umami, some saltiness”.
In the case of `C/C=C/C(=O)NC/C=C(\C)CCC=C(C)C`, the Taste profile (Formula II compounds) is reported as “Moderate umami, salt like, lemon character”.
With `CC/C=C\CC/C=C(\C)CNC(C)=O` the Taste profile (Formula I compounds, at 10 ppm) was “Potent warming at 10 ppm”.

Reference: US20060068071A1, “Saturated and unsaturated N-alkamides exhibiting taste and flavor enhancement effect in flavor compositions” (priority 2004, published 2006)
